Source: patent publication US10881642B2, “Autophagy enhancer and use thereof” (Industry-Academic Cooperation Foundation, Yonsei University, priority 2016, dated 2021)

Legend:
[1] = test system: HFD-fed hIAPP+ mice; assay: Metabolic profile and islet amyloid of HFD-fed hIAPP+ mice; assay type: in vivo
Description: (FIG. 13A) INS-1 cells transfected with non-amyloidogenic prepro-mIAPP-HA or amyloidogenic prepro-hIAPP-HA construct were treated with MSL or MSL-7 followed by western blot analysis using anti-HA antibody. (FIG. 13B) the transfected cells of (FIG. 13A) were treated with MSL-7 in the presence or absence of bafilomycin followed by western blot analysis using anti-HA antibody. (FIG. 13C) The transfected cells were treated with MSL-7 in the presence or absence of 3-MA, after which the amount of […] contained in the cell lysates were measured. (FIG. 13D) HFD-fed hIAPP+ mice were administered with MSL-7, and non-fasting glucose level was monitored. (FIG. 13E) IPGTT. (FIG. 13F) HFD-fed hIAPP+ mice were administered with MSL-7 for 8 weeks and the insulinogenic index was measured. (FIG. 13G) HFD-fed hIAPP+ mice were administered with MSL-7 for 8 weeks and the pancreatic section was obtained. All antibody was used for immunohistochemistry (left). The percentage of A11-[…] cells among DAPI+ cells (right). (FIG. 13H) FSB stained pancreatic section of HFD-fed hIAPP+ mice administered with MSL-7 for 8 weeks (left). Average fluorescence intensity/area (right).
Screening of autophagy enhancer. […] Luciferase assay. Firefly and Renilla luciferase assays were conducted using the Dual-Luciferase Reporter Assay System (Promega) according to the manufacturer's recommendation. In brief, cells were lysed in 1× lysis buffer and subjected to a single round of freezing/thawing. Firefly luciferase was determined after mixing 5 μl of lysate with 25 μl of Luciferase Assay Reagent II. Renilla luciferase was then determined after further addition of 20 ul of Stop&Glo Reagent. Cell culture and media and drugs treatment. HeLa, TFEB-GFP-HeLa, SK-HEP1 (hepatoma cell line) and Hepa1c1c7 (hepatoma cell line) cells were cultured in the following media: (normal) Dulbecco's modified Eagle's medium (DMEM, Sigma-Aldrich) supplemented with 10% FBS and 1% penicillin/streptomycin; (starvation) HBSS media with Ca and Mg supplemented with 10 mM HEPES; Drugs treatment: MSL compound (50-100 μM); Rapamycin ([…]); Torin-1 (1 μM); Bafilomycin (100 nM); Cyclosporin A (10 μM); and FK506 (5 μM). Cells were treated with oleic acid (400 μM) and palmitic acid (400 μM) for 24 h. Where indicated, cells were washed off with HBSS and replaced by DMEM with or without MSL for 16 h. INS-1 cells, a insulinoma cell line of […] were cultured as described previously (Kim et al., 2014 ibid) in the presence or absence of bafilomycin and treated with MSL-7. Lactate dehydrogenase (LDH) assay. Cytotoxicity was determined by the measurement of LDH release in cell culture media using the LDH kit (Roche), according to the protocol from the manufacturer. Transfection and plasmids. Cells were transiently transfected with DNA plasmids 3×FLAG-hTFEB (A Ballabio), FYVE-dsRed (Cantley LC), RFP-LC3 or mRFP-GFP-LC3 using lipofectamine 2000 (Invitrogen) according to the protocol from the manufacturer. […] Imaging and image quantification. […] Formation of acidic vesicular organelles was quantitated by staining the cells with acridine orange (Invitrogen, 5 ug/ml, 10 min). […] Cells or tissues were solubilized in lysis buffer supplemented with protease and phosphatase inhibitors and protein concentration was measured by the Bradford method. Ten to 30 micrograms were loaded on 4-12% Bis-Tris gel (NUPAGE, Invitrogen) or 8-15% SDS-PAGE, transferred to PVDF membranes and analyzed by western blot using the ECL method (Pierce). […]

[2] = test system: HeLa cells; assay: GCaMP3-ML1 lysosomal Ca2+ release imaging; assay type: cell-based; conditions: GPN 200 μM; ionomycin 1 μM
Description: HeLa cells were transfected with perilysosomal GCaMP3-ML1 calcium probe, and Ratiometric image (474 and 410 nm excitation) was obtained.
GCaMP3 Ca2+ Imaging. HeLa cells were grown on 15 mm coverslips and transfected with plasmid encoding the perilysosomal-localized ML1-GCaMP3 calcium probes.

SMILES	non-fasting glucose level [1]	FSB-stained pancreatic islet amyloid ([1]; 8-week administration)	accumulation of hIAPP oligomer (A11 antibody) ([1]; 8-week administration)	Glucose intolerance (IPGTT) ([1]; 8 week treatment)	insulinogenic index ([1]; 8 week treatment)	lysosomal Ca2+ release [2]
COc1oc(-c2ccccc2Cl)nc1S(=O)(=O)c1ccccc1 [MSL-7, 2-(2-chlorophenyl)-5-methoxy-4-(phenylsulfonyl) oxazole]	significantly reduced	similarly reduced	significantly reduced	significantly improved	significantly improved	
CSc1oc(-c2ccccc2)nc1S(=O)(=O)c1ccc(F)cc1 [MSL]						no increase of lysosomal Ca2+ release
